Data as given in ChEMBL document CHEMBL4382265, “(Pyrrolo-pyridin-5-yl)benzamides: BBB permeable monoamine oxidase B inhibitors with neuroprotective effect on cortical neurons” (Eur J Med Chem, 2019).
In brackets after ≈: the same amount, converted by molar mass. One block for each molecule: values may come before it. Activity calls are given as the source filed them. The rule behind the calls is not given here.

How the values were obtained:
physchem [1] = settings: buffer, pH 7.4
[2] = Kinetic aqueous solubility of compound at 500 uM at pH 2 after 90 mins by UV-vis spectrophotometric analysis; type: physicochemical; settings: buffer; for log(Kinetic_solubility): pH 2, 1.5 h, 500 µM; for solubility kinetic at 1.5 h, 500 µM: pH 2, read-out: Kinetic_solubility
in vitro = assay: in vitro; parameters: dose or concentration left out as unconfirmed; settings: PAMPA, pH 7.4
Description: (§1) Effective permeability of the compound in prisma HT buffer at 10 mM at pH 7.4 after 4 hrs by PAMPA

[3] = pampa, pH 7.4, 4 h, 10000 µM
Description: as §1

physchem [4] = settings: n-octanol/water, pH 7.4
[5] = buffer, pH 7.4, 1.5 h, 500 µM
[6] = target: T1, Amine oxidase [flavin-containing] A (Homo sapiens, UniProt P21397); assay: biochemical
T1 sequence (P21397 whole entry): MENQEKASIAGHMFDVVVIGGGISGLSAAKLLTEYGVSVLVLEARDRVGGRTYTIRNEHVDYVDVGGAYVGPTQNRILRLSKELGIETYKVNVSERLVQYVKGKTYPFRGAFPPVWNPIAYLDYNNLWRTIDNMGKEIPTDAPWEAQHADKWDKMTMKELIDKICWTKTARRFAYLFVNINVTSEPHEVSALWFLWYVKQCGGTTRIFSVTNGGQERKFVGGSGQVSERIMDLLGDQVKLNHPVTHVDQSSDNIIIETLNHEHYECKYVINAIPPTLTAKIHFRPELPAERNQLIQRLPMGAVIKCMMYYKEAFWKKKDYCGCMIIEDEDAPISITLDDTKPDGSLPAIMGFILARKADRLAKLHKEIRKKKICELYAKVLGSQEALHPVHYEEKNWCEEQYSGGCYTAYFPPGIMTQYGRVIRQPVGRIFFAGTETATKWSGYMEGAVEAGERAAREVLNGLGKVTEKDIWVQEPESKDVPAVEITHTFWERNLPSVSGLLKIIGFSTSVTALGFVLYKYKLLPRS
Description: Inhibition of human recombinant MAO-A expressed in baculovirus infected BTI-TN-5B1-4 insect cells using p-tyramine as substrate preincubated for 15 mins and measured after 45 mins by resorufin-based fluorescence assay

[7] = target: T2, Amine oxidase [flavin-containing] B (Homo sapiens, UniProt P27338); assay: Inhibition of human recombinant MAO-B expressed in baculovirus infected BTI-TN-5B1-4 insect cells using p-tyramine as substrate preincubated for 15 mins and measured after 45 mins by Cheng-Prusoff equation analysis
T2 sequence (P27338 whole entry): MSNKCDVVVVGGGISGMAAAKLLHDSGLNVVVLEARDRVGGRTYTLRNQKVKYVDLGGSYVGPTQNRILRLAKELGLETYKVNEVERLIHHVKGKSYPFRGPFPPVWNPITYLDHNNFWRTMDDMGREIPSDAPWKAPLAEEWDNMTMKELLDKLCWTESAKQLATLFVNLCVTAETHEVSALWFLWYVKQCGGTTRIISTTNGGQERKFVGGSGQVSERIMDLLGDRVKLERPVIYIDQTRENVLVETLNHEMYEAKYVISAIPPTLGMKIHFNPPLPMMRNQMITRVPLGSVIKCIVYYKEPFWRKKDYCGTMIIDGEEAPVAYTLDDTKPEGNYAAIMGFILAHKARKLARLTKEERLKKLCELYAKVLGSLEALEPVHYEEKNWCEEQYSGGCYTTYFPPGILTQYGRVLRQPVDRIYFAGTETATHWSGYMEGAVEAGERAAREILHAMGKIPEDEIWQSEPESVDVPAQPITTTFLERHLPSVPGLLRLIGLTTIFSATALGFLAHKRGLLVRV

[8] = Selectivity ratio of IC50 for Sprague-Dawley rat liver MAO-B to human recombinant MAO-B expressed in baculovirus infected BTI-TN-5B1-4 insect cells
[9] = Kinetic aqueous solubility of compound at 500 uM at pH 5.5 after 90 mins by UV-vis spectrophotometric analysis; type: physicochemical; settings: buffer; for log(Kinetic_solubility): pH 5.5, 1.5 h, 500 µM; for solubility kinetic at 1.5 h, 500 µM: pH 5.5, read-out: Kinetic_solubility
Homo sapiens = species: Homo sapiens; assay: Selectivity index, ratio of IC50 for human recombinant MAO-A expressed in baculovirus infected BTI-TN-5B1-4 insect cells to IC50 for human recombinant MAO-B expressed in baculovirus infected BTI-TN-5B1-4 insect cells
[10] = target: T2, Amine oxidase [flavin-containing] B; assay: biochemical; type: cell-based, BTI-TN-5B1-4
Description: Inhibition of human recombinant MAO-B expressed in baculovirus infected BTI-TN-5B1-4 insect cells using p-tyramine as substrate preincubated for 15 mins and measured after 45 mins by resorufin-based fluorescence assay

[11] = target: T3, Amine oxidase [flavin-containing] A (Rattus norvegicus, UniProt P21396)
T3 sequence (P21396 whole entry): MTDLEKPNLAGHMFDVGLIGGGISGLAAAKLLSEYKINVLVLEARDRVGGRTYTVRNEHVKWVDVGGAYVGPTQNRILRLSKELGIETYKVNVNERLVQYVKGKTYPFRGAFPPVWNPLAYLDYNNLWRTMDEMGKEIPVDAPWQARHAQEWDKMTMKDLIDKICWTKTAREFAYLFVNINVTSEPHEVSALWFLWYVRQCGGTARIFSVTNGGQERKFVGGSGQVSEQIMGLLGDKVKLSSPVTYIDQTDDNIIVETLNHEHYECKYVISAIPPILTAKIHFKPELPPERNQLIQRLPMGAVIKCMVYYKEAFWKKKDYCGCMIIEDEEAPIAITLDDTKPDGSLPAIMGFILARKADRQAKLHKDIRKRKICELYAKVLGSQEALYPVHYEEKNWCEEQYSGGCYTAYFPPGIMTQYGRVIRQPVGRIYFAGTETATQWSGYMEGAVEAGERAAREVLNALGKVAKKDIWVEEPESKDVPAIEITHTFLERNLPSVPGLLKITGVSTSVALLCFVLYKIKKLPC
Description: Inhibition of Sprague-Dawley rat liver MAO-A using p-tyramine as substrate preincubated for 15 mins and measured after 45 mins by resorufin-based fluorescence assay

[12] = target: T4, Amine oxidase [flavin-containing] B (Rattus norvegicus, UniProt P19643)
T4 sequence (P19643 whole entry): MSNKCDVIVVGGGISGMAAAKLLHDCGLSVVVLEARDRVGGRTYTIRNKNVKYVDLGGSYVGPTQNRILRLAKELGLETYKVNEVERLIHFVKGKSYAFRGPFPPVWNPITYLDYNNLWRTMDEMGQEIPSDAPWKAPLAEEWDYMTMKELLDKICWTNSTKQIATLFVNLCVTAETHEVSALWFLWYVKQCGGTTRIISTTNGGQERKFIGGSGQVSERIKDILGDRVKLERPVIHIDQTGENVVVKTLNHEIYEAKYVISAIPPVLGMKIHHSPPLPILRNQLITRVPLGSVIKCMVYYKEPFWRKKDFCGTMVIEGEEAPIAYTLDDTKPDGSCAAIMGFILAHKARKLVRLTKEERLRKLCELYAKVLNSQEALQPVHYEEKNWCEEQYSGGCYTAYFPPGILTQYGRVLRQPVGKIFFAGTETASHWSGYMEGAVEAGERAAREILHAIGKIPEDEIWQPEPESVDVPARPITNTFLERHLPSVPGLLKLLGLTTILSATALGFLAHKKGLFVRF
Description: Inhibition of Sprague-Dawley rat liver MAO-B using p-tyramine as substrate preincubated for 15 mins and measured after 45 mins by resorufin-based fluorescence assay

Cortical neurone [13] = assay: Neuroprotective activity in rat primary cortical neurons at 0.1 to 1 nM after 120 hrs; type: functional, cell-based
Cortical neurone [14] = assay: Neuroprotective activity in rat primary cortical neurons neurovascular unit model assessed as increase in survival at 1 pM to 10 nM after 120 hrs in presence of HBMEC relative to untreated control; type: functional, cell-based
Cortical neurone [15] = assay: Neuroprotective activity in rat primary cortical neurons assessed as increase in survival at 100 nM after 120 hrs relative to untreated control; type: functional
Cortical neurone [16] = assay: Neuroprotective activity in rat primary cortical neurons assessed as induction of neurite network outgrowth at 1 to 10 pM after 120 hrs; type: functional, cell-based
Cortical neurone [17] = assay: Neuroprotective activity in rat primary cortical neurons assessed as induction of neurite network outgrowth at 10 to 100 nM after 120 hrs; type: functional, cell-based
Cortical neurone [18] = assay: Neuroprotective activity in rat primary cortical neurons neurovascular unit model assessed as induction of neurite network outgrowth at 1 pM to 10 nM after 120 hrs in presence of HBMEC relative to untreated control; type: functional, cell-based
Cortical neurone [19] = assay: Neuroprotective activity in rat primary cortical neurons assessed as increase in survival at 1 nM after 120 hrs relative to untreated control; type: functional
Cortical neurone [20] = assay: Neuroprotective activity in rat primary cortical neurons neurovascular unit model assessed as induction of neurite network outgrowth at 150 to 300 nM after 120 hrs in presence of HBMEC relative to untreated control; type: functional, cell-based
Cortical neurone [21] = assay: Neuroprotective activity in rat primary cortical neurons neurovascular unit model assessed as increase in survival at 150 to 300 nM after 120 hrs in presence of HBMEC relative to untreated control; type: functional, cell-based
[22] = target: T2, Amine oxidase [flavin-containing] B; assay: Reversible inhibition of human recombinant MAO-B expressed in baculovirus infected BTI-TN-5B1-4 insect cells at IC80 using p-tyramine as substrate incubated for 20 mins followed by increase in substrate concentration up to 1 mM and measured after 300 mins by fluorescence assay

- IC50 [10]: 121 nM
- IC50 [11]: > 10000 nM
- IC50 [12]: 574 nM
- IC50 [6]: > 10000 nM
- Ki [7]: 53.5 nM
SMILES: O=C(Nc1cc2cc[nH]c2cn1)c1ccc(Cl)c(F)c1
- Ratio IC50 [8]: 1.1
- Ratio IC50 (Homo sapiens): > 82

- Ki [7]: 1460 nM
SMILES: O=C(Nc1ccc2[nH]ncc2c1)c1c(F)cccc1Cl

- IC50 [10]: 5.9 nM
- IC50 [11]: 7700 nM
- IC50 [12]: 14.7 nM
SMILES: CC(=O)N[C@H]1CC(=O)N(c2ccc(OCc3cccc(F)c3)cc2)C1 [SEMBRAGILINE]
- Ratio IC50 (Homo sapiens): 653

- IC50 [11]: > 10000 nM
- IC50 [6]: > 10000 nM
- Ki [7]: 31.8 nM
SMILES: O=C(Nc1cc2cc[nH]c2cn1)c1ccc(F)c(Cl)c1
- Ratio IC50 [8]: 1.1
- Ratio IC50 (Homo sapiens): > 138

- IC50 [10]: 28.9 nM
- solubility kinetic at 1.5 h, 500 µM (physchem [1]): 65.1 µM (≈ 19.9 µg/mL)
- log(Kinetic_solubility) [2]: -3.37
- solubility kinetic at 1.5 h, 500 µM [2]: 426 µM (≈ 130 µg/mL)
- Papp at 4 h (in vitro): 111 ×10⁻⁶ cm/s
- log(permeability) [3]: -3.96
- logD at 1.5 h (physchem [4]): 3.04
- log(Kinetic_solubility) [5]: -4.19
- IC50 [6]: > 10000 nM
- Ki [7]: 12.8 nM
- log(Kinetic_solubility) [9]: -4.16
- solubility kinetic at 1.5 h, 500 µM [9]: 68.8 µM (≈ 21.1 µg/mL)
SMILES: O=C(Nc1cc2cc[nH]c2cn1)c1ccc(Cl)c(Cl)c1
- Ratio IC50 [8]: 1.1
- Ratio IC50 (Homo sapiens): > 346

Further lines, the molecule ahead of its results:

SMILES: O=C(Nc1ccc2[nH]ccc2n1)c1ccc(Cl)c(F)c1
- solubility kinetic at 1.5 h, 500 µM (physchem [1]): 93.8 µM (≈ 27.2 µg/mL)
- log(Kinetic_solubility) [2]: -3.41
- solubility kinetic at 1.5 h, 500 µM [2]: 391 µM (≈ 113 µg/mL)
- Papp at 4 h (in vitro): 127 ×10⁻⁶ cm/s
- log(permeability) [3]: -3.9
- logD at 1.5 h (physchem [4]): 2.69
- log(Kinetic_solubility) [5]: -4.03
- IC50 [6]: > 10000 nM
- Ki [7]: 4.82 nM
- Ratio IC50 [8]: 1.1
- log(Kinetic_solubility) [9]: -4.09
- solubility kinetic at 1.5 h, 500 µM [9]: 82.1 µM (≈ 23.8 µg/mL)
- Ratio IC50 (Homo sapiens): > 917

SMILES: O=C(Nc1ccc2[nH]ncc2c1)c1cccc(Cl)c1Cl
- Ki [7]: 1140 nM

SMILES: O=C(Nc1ccc2[nH]ncc2c1)c1ccc(Cl)c(Cl)c1
- Ki [7]: 5.48 nM

SMILES: O=C(Cc1ccc(Cl)c(Cl)c1)Nc1ccc2[nH]ccc2c1
- Ki [7]: 390 nM

SMILES: O=C(Nc1cc2cc[nH]c2cn1)c1ccc(F)c(F)c1
- IC50 [12]: 1300 nM
- Ki [7]: 122 nM
- Ratio IC50 [8]: 1.1
- Ratio IC50 (Homo sapiens): > 36

SMILES: O=C(Nc1ccc2[nH]ccc2n1)c1ccc(Cl)c(Cl)c1
- Activity (Cortical neurone [13]): Active
- Activity (Cortical neurone [14]): Active
- Efficacy (Cortical neurone [15]): 11%
- solubility kinetic at 1.5 h, 500 µM (physchem [1]): 39.8 µM (≈ 12.2 µg/mL)
- log(Kinetic_solubility) [2]: -3.33
- solubility kinetic at 1.5 h, 500 µM [2]: 471 µM (≈ 144 µg/mL)
- Papp at 4 h (in vitro): 107 ×10⁻⁶ cm/s
- log(permeability) [3]: -3.97
- logD at 1.5 h (physchem [4]): 3.19
- log(Kinetic_solubility) [5]: -4.4
- IC50 [6]: > 10000 nM
- Activity (Cortical neurone [16]): Active
- Activity (Cortical neurone [17]): inactive
- Activity (Cortical neurone [18]): Active
- Efficacy (Cortical neurone [19]): 31%
- log(Kinetic_solubility) [9]: -4.37
- solubility kinetic at 1.5 h, 500 µM [9]: 42.9 µM (≈ 13.1 µg/mL)

SMILES: C[C@]12CC[C@@H]3c4ccc(O)cc4CC[C@H]3[C@@H]1CC[C@@H]2O
- Activity (Cortical neurone [20]): Active
- Activity (Cortical neurone [21]): Active

SMILES: O=C(Nc1ccc2[nH]ccc2n1)c1ccc(F)c(F)c1
- IC50 [6]: > 10000 nM
- Ki [7]: 20.4 nM
- Ratio IC50 [8]: 1.1
- Ratio IC50 (Homo sapiens): > 217

SMILES: O=C(Nc1ccc2[nH]ccc2n1)c1ccc(F)c(Cl)c1
- solubility kinetic at 1.5 h, 500 µM (physchem [1]): 119 µM (≈ 34.5 µg/mL)
- log(Kinetic_solubility) [2]: -3.33
- solubility kinetic at 1.5 h, 500 µM [2]: 501 µM (≈ 145 µg/mL)
- Papp at 4 h (in vitro): 110 ×10⁻⁶ cm/s
- inhibition (INH) [22]: Active
- log(permeability) [3]: -3.96
- logD at 1.5 h (physchem [4]): 2.32
- log(Kinetic_solubility) [5]: -3.92
- IC50 [6]: > 10000 nM
- Ki [7]: 1.45 nM
- Ratio IC50 [8]: 1.1
- log(Kinetic_solubility) [9]: -3.96
- solubility kinetic at 1.5 h, 500 µM [9]: 111 µM (≈ 32.1 µg/mL)
- Ratio IC50 (Homo sapiens): > 3060
